In patent US10112937B2, “P2X7 modulators and methods of use” (Janssen Pharmaceutica NV, priority 2013, dated 2018):

Columns and labels:
human P2X7 [1] = biological target: T1, human P2X7 (Homo sapiens (Human), UniProt Q99572); assay: P2X7 antagonism in human PBMCs (IL-1β release after LPS + Bz-ATP, ELISA); format: cell-based; details: human PBMCs
human P2X7 [2] = biological target: T1, human P2X7; assay: Ca2+ flux (FLIPR) in 1321N1 cells expressing recombinant human P2X7; format: cell-based;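 note: cells loaded with Calcium-4 dye, preincubated with test compound for 30 min, fluorescence change read 180 s after agonist addition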
rat P2X7 = rat P2X7 (Rattus norvegicus (Rat), UniProt Q64663); assay: Ca2+ flux (FLIPR) in 1321N1 cells expressing recombinant rat P2X7; format: cell-based;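 note: Calcium-4 dye fluorescence change read 180 s after agonist addition, with cells preincubated 30 min with compound and dye in 96-well plates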
Chain of rat P2X7 (Q64663 whole entry): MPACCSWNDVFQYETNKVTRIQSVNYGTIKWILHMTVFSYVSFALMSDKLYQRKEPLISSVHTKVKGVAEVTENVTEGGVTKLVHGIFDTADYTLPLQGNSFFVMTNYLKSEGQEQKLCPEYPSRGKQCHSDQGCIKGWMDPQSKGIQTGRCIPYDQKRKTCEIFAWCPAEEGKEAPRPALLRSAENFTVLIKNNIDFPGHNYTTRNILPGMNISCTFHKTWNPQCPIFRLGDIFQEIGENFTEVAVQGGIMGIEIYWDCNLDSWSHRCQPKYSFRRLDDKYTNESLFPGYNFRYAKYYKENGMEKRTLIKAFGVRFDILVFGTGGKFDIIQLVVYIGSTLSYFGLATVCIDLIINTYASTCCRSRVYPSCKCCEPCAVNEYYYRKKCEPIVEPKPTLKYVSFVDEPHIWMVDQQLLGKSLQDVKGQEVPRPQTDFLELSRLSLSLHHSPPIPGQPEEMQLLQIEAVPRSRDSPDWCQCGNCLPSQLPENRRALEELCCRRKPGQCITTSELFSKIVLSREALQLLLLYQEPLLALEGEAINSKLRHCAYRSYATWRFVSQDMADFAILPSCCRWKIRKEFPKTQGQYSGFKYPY
Description: P2X7 Antagonism in Recombinant Human P2X7 Cells or Recombinant Rat P2X7 Cells: (a) Ca^2+ Flux and (b) Radioligand Binding
1321N1 cells expressing the recombinant human or rat P2X7 channel was cultured in HyQ DME/(HyClone/Dulbecco's Modified Eagle Medium) high glucose supplemented with 10% Fetal Bovine Serum (FBS) and appropriate selection marker. Cells were seeded at a density of 25000 cells/well (96-well clear bottom black walled plates) in 100 μl volume/well. On the day of the experiment, cell plates were washed with assay buffer, containing (in mM): 130 NaCl, 2 KCl, 1 CaCl2, 1 MgCl2, 10 HEPES, 5 glucose; pH 7.40 and 300 mOs. After the wash, cells were loaded with the Calcium-4 dye (Molecular Device) and incubated in the dark for 60 minutes. Test compounds were prepared at 250× the test concentration in neat DMSO. Intermediate 96-well compound plates were prepared by transferring 1.2 μL of the compound into 300 μL of assay buffer. A further 3× dilution occurred when transferring 50 μL/well of the compound plate to 100 μL/well in the cell plate. Cells were incubated with test compounds and dye for 30 minutes. […] The fluorescence change was measured 180 seconds after adding the agonist.

human P2X7 [3] = biological target: T1, human P2X7; assay: Radioligand binding ([3H]A-804598), human P2X7-1321N1 cell membranes
Description: human or rat P2X7-1321N1 cells were collected and frozen @−80° C. On the day of the experiment, cell membrane preparations were made according to standard published methods. […] The assay was terminated by filtration (GF/B filters pre-soaked with 0.3% PEI) and washed with washing buffer (Tris-HCl 50 mM). The IC50 generated in the binding assay was corrected for tracer concentration and affinity of the tracer to derive at the affinity (Ki) of the test compounds. […] For analysis, each concentration point is averaged from triplicate values and the averaged values are plotted on Graphpad Prism.

[4] = 1321N1 cells, recombinant human P2X7, 250 μM BzATP
[5] = 1321N1 cells, recombinant rat P2X7, 250 μM BzATP
[6] = human P2X7-1321N1 membranes, tritiated A-804598
[7] = 10 μM test compound, LPS + Bz-ATP
[8] = Ca2+ flux, 250 μM BzATP, rat P2X7 1321N1 cells
[9] = [3H]A-804598, human P2X7-1321N1 membranes
[10] = Ca2+ flux, 250 μM BzATP, human P2X7 1321N1 cells

T1 sequence (Q99572 whole entry): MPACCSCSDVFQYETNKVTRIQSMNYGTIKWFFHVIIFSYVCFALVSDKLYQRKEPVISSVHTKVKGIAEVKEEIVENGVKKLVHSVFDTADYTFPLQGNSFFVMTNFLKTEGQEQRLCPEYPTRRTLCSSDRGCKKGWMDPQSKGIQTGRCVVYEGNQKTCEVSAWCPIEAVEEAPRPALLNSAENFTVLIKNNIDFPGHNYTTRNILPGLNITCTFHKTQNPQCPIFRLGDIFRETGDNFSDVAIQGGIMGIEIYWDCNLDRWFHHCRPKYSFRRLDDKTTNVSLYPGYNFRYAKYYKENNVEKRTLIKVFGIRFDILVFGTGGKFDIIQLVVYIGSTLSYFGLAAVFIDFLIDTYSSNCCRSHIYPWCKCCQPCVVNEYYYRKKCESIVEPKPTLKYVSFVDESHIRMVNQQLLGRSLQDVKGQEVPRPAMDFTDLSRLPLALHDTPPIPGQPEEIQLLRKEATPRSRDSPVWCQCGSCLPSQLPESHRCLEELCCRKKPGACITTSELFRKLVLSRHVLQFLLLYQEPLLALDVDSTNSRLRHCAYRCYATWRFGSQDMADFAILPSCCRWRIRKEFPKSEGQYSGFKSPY

PBMC 10 μM (% control) (human P2X7 [1]; test compound 10 μM) | IC50 (human P2X7 [2]; [4]) [µM] | IC50 (rat P2X7; [5]) [µM] | Ki (human P2X7 [3]; [6]) [µM] | PBMC 10 μM (% control) (human P2X7 [1]; [7]) | IC50 (rat P2X7; [8]) [µM] | Ki (human P2X7 [3]; [9]) [µM] | IC50 (human P2X7 [2]; [10]) [µM] | SMILES
0.7 | 0.0027 | 0.0022 | 0.0079 |  |  |  |  | C[C@H]1Cc2c(nnn2-c2ccn[nH]2)CN1C(=O)c1cccc(C(F)(F)F)c1F (single isomer, unassigned) [Example 349, (S*)-(2-fluoro-3-(trifluoromethyl)phenyl)(6-methyl-1-(1H-pyrazol-5-yl)-6,7-dihydro-1H-[1,2,3]triazolo[4,5-c]pyridin-5(4H)-yl)methanone]
−2.3 | 0.0226 | 0.235 | 0.0398 |  |  |  |  | Cc1cc(-n2nnc3c2CCN(C(=O)c2ccnc(C(F)(F)F)c2F)[C@@H]3C)ncc1F (single isomer, unassigned) [Example 368, (R*)-(3-fluoro-2-(trifluoromethyl)pyridin-4-yl)(1-(5-fluoro-4-methylpyridin-2-yl)-4-methyl-6,7-dihydro-1H-[1,2,3]triazolo[4,5-c]pyridin-5(4H)-yl)methanone]
3.8 | 0.113 | 0.0474 | 0.2 |  |  |  |  | C[C@@H]1c2nnn(-c3cccc(C(F)(F)F)n3)c2CCN1C(=O)c1cccc(C(F)(F)F)c1Cl (single isomer, unassigned) [Example 379, (R*)-(2-chloro-3-(trifluoromethyl)phenyl)(4-methyl-1-(6-(trifluoromethyl)pyridin-2-yl)-6,7-dihydro-1H-[1,2,3]triazolo[4,5-c]pyridin-5(4H)yl)methanone]
1.8 |  |  | 0.0063 |  |  |  |  | C[C@H]1Cc2c(nnn2-c2ncc(F)cn2)CN1C(=O)c1ccc(Cl)cc1F [Example 156, (S)-(4-chloro-2-fluorophenyl)(1-(5-fluoropyrimidin-2-yl)-6-methyl-6,7-dihydro-1H-[1,2,3]triazolo[4,5-c]pyridin-5(4H)-yl)methanone]

The next lines start with the compound.

SMILES | PBMC 10 μM (% control) (human P2X7 [1]; test compound 10 μM) | IC50 (human P2X7 [2]; [4]) [µM] | IC50 (rat P2X7; [5]) [µM] | Ki (human P2X7 [3]; [6]) [µM] | PBMC 10 μM (% control) (human P2X7 [1]; [7]) | IC50 (rat P2X7; [8]) [µM] | Ki (human P2X7 [3]; [9]) [µM] | IC50 (human P2X7 [2]; [10]) [µM]
Cc1c(C(=O)N2Cc3nnn(-c4ccn[nH]4)c3C[C@H]2C)cccc1C(F)(F)F (single isomer, unassigned) [Example 346, (R*)-(6-methyl-1-(1H-pyrazol-3-yl)-6,7-dihydro-1H-[1,2,3]triazolo[4,5-c]pyridin-5(4H)-yl)(2-methyl-3-(trifluoromethyl)phenyl)methanone] | −2.3 | 0.0065 | 0.0022 | 0.01 |  |  |  | 
Cc1c(C(=O)N2Cc3nnn(-c4cc[nH]n4)c3CC2C)cccc1C(F)(F)F (centres unmarked) [Example 154, (6-methyl-1-(1H-pyrazol-3-yl)-6,7-dihydro-1H-[1,2,3]triazolo[4,5-c]pyridin-5(4H)-yl)(2-methyl-3-(trifluoromethyl)phenyl)methanone] | −0.6 |  |  | 0.0079 |  |  |  | 
CC1c2n[nH]c(-c3ccccn3)c2CCN1C(=O)c1cccc(C(F)(F)F)c1Cl (centres unmarked) [Example 432, (2-chloro-3-(trifluoromethyl)phenyl)(7-methyl-3-(pyridin-2-yl)-4,5-dihydro-2H-pyrazolo[3,4-c]pyridin-6(7H)-yl)methanone] |  |  |  |  | 0.3 | 0.0328 | 0.0158 | 
CC1c2n[nH]c(-c3cnccn3)c2CCN1C(=O)c1cccc(Cl)c1Cl (centres unmarked) [Example 433, (2,3-dichlorophenyl)(7-methyl-3-(pyrazin-2-yl)-4,5-dihydro-2H-pyrazolo[3,4-c]pyridin-6(7H)-yl)methanone] |  |  |  |  | −3.6 |  | 0.0158 | 0.0189
CC1c2n[nH]c(-c3ccc(F)cc3)c2CCN1C(=O)c1cccc(Cl)c1Cl (centres unmarked) [Example 435, (2,3-dichlorophenyl)(3-(4-fluorophenyl)-7-methyl-4,5-dihydro-2H-pyrazolo[3,4-c]pyridin-6(7H)-yl)methanone] |  |  |  |  | −11.3 |  | 0.1 | 0.0586
CC1c2n[nH]c(-c3ccnn3C)c2CCN1C(=O)c1cccc(Cl)c1Cl (centres unmarked) [Example 436, (2,3-dichlorophenyl)(7-methyl-3-(1-methyl-1H-pyrazol-5-yl)-4,5-dihydro-2H-pyrazolo[3,4-c]pyridin-6(7H)-yl)methanone] |  |  |  |  | −3.4 | > 10 |  | 1.13
